ChEMBL document CHEMBL4725368, “Novel C-7 carbon substituted fourth generation fluoroquinolones targeting N. Gonorrhoeae infections” (Bioorg Med Chem Lett, 2020)
≈ marks a conversion by molar mass, not a printed value.

What was measured:
[1] = tested on: Neisseria gonorrhoeae; assay: Antibacterial activity against Neisseria gonorrhoeae ATCC 49226 assessed as reduction in bacterial growth by CLSI protocol based microdilution method; assay type: functional
[2] = Acid dissociation constant, pKa of the compound; assay type: physicochemical
[3] = biological target: T1, hERG (KCNH2) (Homo sapiens, UniProt Q12809); assay: Inhibition of human ERG at 100 uM relative to control
[4] = biological target: Cytochrome P450 3A4 (Homo sapiens, UniProt P08684)
Description: Inhibition of CYP3A4 (unknown origin)

[5] = tested on: Klebsiella pneumoniae; assay: Antibacterial activity against Klebsiella pneumoniae ATCC 700603 assessed as reduction in bacterial growth by CLSI protocol based microdilution method; assay type: functional
[6] = biological target: Cytochrome P450 2C19 (Homo sapiens, UniProt P33261)
Description: Inhibition of CYP2C19 (unknown origin)

[7] = tested on: Neisseria gonorrhoeae; assay: Antibacterial activity against fluoroquinolone-resistant Neisseria gonorrhoeae WHO L harboring multiple point mutations at DNA gyrase and topoisomerase IV and porB1b mutation assessed as reduction in bacterial growth by CLSI protocol based microdilution method; assay type: functional
[8] = physchem
Description: Kinetic solubility of the compound

[9] = Intrinsic clearance in human hepatocytes assessed per 10^6 cells; assay type: ADME, cell-based, Hepatocyte; conditions: read-out: CLH
[10] = tested on: Pseudomonas aeruginosa; assay: Antibacterial activity against Pseudomonas aeruginosa PAO1 assessed as reduction in bacterial growth by CLSI protocol based microdilution method; assay type: functional
[11] = tested on: Acinetobacter baumannii; assay: Antibacterial activity against Acinetobacter baumannii ATCC 19606 assessed as reduction in bacterial growth by CLSI protocol based microdilution method; assay type: functional; conditions: ATCC 19606 = CIP 70.34 = JCM 6841
[12] = biological target: T2, Cytochrome P450 1A2 (Homo sapiens, UniProt P05177)
T2 sequence (P05177 whole entry): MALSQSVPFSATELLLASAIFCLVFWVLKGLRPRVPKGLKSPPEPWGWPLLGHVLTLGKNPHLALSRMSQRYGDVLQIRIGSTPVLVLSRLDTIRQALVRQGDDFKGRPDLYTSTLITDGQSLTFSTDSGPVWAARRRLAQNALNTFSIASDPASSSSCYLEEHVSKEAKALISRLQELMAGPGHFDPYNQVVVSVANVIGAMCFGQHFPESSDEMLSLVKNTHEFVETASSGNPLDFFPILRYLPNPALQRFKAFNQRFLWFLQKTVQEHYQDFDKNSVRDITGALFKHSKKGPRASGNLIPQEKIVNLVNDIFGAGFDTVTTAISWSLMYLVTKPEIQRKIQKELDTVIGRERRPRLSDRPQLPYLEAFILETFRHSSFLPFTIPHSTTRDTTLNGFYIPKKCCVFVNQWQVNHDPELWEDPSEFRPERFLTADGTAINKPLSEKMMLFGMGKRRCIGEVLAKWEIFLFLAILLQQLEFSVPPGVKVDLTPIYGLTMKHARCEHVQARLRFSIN
Description: Inhibition of CYP1A2 (unknown origin)

[13] = Intrinsic clearance in human liver microsomes; assay type: ADME, Microsome; conditions: read-out: CLH
[14] = physchem; conditions: octanol/water, pH 7.4
Description: Distribution coefficient, logD of the compound at pH 7.4

[15] = tested on: Enterococcus faecalis; assay: Antibacterial activity against Enterococcus faecalis ATCC 29212 assessed as reduction in bacterial growth by CLSI protocol based microdilution method; assay type: functional
[16] = in vitro; conditions: human, plasma
Description: Protein binding in human plasma assessed as free fraction

[17] = tested on: Staphylococcus aureus; assay: Antibacterial activity against Staphylococcus aureus ATCC 29213 assessed as reduction in bacterial growth by CLSI protocol based microdilution method; assay type: functional
[18] = tested on: Escherichia coli; assay: Antibacterial activity against Escherichia coli ATCC 25922 assessed as reduction in bacterial growth by CLSI protocol based microdilution method; assay type: functional
[19] = biological target: Cytochrome P450 2D6 (Homo sapiens, UniProt P10635)
Description: Inhibition of CYP2D6 (unknown origin)

[20] = biological target: Cytochrome P450 2C9 (Homo sapiens, UniProt P11712)
Description: Inhibition of CYP2C9 (unknown origin)

[21] = biological target: T1, hERG (KCNH2); assay: Inhibition of human ERG at 30 uM relative to control
[22] = tested on: Neisseria gonorrhoeae; assay: Antibacterial activity against Neisseria gonorrhoeae assessed as reduction in bacterial growth; assay type: functional
[23] = biological target: Voltage-gated inwardly rectifying potassium channel KCNH2 (Homo sapiens, UniProt Q12809); assay: Inhibition of human ERG up to 185 uM
[24] = Oral bioavailability in human at 450 mg measured every 12 hrs; assay type: ADME, organism-based; conditions: in vivo
[25] = Oral bioavailability in human at 400 mg measured every 12 hrs; assay type: ADME, organism-based; conditions: in vivo

Cytochrome P450 2C9, sequence (P11712 whole entry): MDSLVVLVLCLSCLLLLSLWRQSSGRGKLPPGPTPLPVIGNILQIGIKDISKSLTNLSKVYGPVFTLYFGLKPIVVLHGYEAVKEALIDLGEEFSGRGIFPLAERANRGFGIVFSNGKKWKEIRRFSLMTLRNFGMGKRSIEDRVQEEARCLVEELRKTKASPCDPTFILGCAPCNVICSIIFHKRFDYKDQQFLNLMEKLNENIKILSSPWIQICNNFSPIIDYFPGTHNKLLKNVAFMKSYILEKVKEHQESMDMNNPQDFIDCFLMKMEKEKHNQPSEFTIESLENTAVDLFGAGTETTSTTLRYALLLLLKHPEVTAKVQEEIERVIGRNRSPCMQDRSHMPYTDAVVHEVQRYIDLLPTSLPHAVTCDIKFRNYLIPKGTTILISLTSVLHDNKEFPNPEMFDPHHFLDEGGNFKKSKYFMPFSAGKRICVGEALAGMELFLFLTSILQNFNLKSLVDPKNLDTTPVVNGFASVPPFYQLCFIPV
Cytochrome P450 2D6, sequence (P10635 whole entry): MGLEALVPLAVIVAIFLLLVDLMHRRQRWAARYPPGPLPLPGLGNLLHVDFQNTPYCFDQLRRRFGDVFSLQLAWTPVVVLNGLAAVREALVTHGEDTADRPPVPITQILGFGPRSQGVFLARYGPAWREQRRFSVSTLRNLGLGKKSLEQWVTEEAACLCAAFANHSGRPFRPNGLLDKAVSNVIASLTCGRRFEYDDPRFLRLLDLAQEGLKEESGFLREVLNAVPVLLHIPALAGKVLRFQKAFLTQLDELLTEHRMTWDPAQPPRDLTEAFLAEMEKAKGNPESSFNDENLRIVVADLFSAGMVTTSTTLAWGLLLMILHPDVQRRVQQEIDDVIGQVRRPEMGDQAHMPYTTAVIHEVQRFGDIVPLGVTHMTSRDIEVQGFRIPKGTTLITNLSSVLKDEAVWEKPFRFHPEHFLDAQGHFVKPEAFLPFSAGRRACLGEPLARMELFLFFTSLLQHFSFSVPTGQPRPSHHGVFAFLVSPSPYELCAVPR
T1 sequence (Q12809 whole entry): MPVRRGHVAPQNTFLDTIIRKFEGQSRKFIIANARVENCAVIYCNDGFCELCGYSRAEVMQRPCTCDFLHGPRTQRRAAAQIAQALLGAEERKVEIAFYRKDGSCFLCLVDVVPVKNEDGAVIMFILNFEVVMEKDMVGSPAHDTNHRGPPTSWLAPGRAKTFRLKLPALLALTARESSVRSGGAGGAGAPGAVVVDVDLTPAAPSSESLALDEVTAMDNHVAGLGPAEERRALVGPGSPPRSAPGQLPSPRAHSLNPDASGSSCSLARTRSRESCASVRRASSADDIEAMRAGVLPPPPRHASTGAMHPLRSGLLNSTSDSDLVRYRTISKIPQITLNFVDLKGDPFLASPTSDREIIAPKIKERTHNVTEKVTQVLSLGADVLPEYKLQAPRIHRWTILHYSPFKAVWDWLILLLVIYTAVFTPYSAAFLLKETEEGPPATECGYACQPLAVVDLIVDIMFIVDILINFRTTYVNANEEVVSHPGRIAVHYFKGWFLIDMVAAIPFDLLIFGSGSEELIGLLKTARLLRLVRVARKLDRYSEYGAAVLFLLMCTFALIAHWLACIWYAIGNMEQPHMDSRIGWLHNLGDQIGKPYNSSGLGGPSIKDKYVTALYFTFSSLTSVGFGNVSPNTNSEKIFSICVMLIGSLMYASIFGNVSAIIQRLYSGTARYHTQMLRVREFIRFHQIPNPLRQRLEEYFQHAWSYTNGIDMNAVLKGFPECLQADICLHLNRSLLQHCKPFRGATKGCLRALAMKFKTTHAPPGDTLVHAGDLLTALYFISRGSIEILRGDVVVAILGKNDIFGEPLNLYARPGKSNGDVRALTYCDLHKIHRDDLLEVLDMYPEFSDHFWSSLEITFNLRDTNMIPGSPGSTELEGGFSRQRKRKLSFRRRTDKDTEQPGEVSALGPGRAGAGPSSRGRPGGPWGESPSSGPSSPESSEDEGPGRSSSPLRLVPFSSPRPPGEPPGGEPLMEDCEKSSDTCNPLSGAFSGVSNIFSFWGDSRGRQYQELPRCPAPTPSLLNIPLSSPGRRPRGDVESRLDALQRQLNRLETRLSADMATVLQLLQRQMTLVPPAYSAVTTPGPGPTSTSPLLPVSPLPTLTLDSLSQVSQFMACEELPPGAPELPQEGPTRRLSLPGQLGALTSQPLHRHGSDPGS
Cytochrome P450 3A4, sequence (P08684 whole entry): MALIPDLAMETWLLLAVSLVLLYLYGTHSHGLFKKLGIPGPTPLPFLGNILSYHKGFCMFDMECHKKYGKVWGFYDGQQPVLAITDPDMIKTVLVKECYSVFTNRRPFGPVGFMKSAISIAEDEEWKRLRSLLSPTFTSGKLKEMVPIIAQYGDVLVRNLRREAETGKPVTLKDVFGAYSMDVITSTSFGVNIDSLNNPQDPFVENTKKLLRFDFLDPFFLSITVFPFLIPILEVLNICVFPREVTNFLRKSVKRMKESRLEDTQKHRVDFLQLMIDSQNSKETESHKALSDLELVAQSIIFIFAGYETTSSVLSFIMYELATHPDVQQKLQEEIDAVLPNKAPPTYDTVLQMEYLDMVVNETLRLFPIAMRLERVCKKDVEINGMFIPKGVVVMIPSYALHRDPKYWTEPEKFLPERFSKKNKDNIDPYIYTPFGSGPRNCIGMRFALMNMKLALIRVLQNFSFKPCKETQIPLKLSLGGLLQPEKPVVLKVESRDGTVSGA
Cytochrome P450 2C19, sequence (P33261 whole entry): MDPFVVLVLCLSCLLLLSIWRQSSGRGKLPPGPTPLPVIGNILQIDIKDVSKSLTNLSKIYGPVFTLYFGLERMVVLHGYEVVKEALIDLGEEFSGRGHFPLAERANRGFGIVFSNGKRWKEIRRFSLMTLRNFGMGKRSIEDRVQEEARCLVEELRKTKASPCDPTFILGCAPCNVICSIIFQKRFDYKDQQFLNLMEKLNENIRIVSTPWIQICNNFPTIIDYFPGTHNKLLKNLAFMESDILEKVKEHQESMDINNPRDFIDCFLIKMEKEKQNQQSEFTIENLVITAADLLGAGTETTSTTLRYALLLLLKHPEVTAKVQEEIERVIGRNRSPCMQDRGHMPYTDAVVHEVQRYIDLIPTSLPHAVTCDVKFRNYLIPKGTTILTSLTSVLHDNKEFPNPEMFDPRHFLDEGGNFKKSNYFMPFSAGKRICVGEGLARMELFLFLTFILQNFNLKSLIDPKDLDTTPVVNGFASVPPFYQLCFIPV
Voltage-gated inwardly rectifying potassium channel KCNH2, sequence (Q12809 whole entry): as the sequence (Q12809 whole entry) above

Row | Compound | MIC [1] | pKa [2] | inhibition at 100 µM [3] | IC50 [4] | MIC [5] | IC50 [6] | MIC [7] | solubility kinetic [8] | hepatocyte CLint [9] | MIC [10] | MIC [11] | IC50 [12] | microsomal CLint [13] | logD [14] | MIC [15] | fraction unbound [16] | MIC [17] | MIC [18] | IC50 [19] | IC50 [20] | further results
1 | Nc1nc(-n2cc(C(=O)O)c(=O)c3cc(F)c([C@H]4C[C@@H](O)C4)c(Cl)c32)c(F)cc1F | 0.06 µg/mL (≈ 0.136 µM) | 4.96 | 15% | 24.8 µM | 4 µg/mL (≈ 9.1 µM) | > 50 µM | 0.12 µg/mL (≈ 0.273 µM) | 44.8 µM (≈ 19.7 µg/mL) | 9.2 µL/min/1e6 cells | 4 µg/mL (≈ 9.1 µM) | 16 µg/mL (≈ 36.4 µM) | > 50 µM | < 5 µL/min/mg | 0.3 | 0.25 µg/mL (≈ 0.568 µM) | 0.124 | 0.03 µg/mL (≈ 0.0682 µM) | 0.12 µg/mL (≈ 0.273 µM) | > 50 µM | > 50 µM | –
2 | Nc1nc(-n2cc(C(=O)O)c(=O)c3cc(F)c(N4CC(N)C4)c(Cl)c32)c(F)cc1F | 0.007 µg/mL (≈ 0.0159 µM) | 5.33 | – | 13.6 µM | 0.25 µg/mL (≈ 0.568 µM) | > 50 µM | 0.06 µg/mL (≈ 0.136 µM) | 3.6 µM (≈ 1.58 µg/mL) | 3 µL/min/1e6 cells | 0.12 µg/mL (≈ 0.273 µM) | 2 µg/mL (≈ 4.55 µM) | > 50 µM | < 5 µL/min/mg | -0.3 | 0.12 µg/mL (≈ 0.273 µM) | 0.297 | 0.003 µg/mL (≈ 0.00682 µM) | 0.001 µg/mL (≈ 0.00227 µM) | > 50 µM | 12.7 µM | inhibition at 30 µM [21]: 6%
3 | Nc1nc(-n2cc(C(=O)O)c(=O)c3cc(F)c(N4CC(O)C4)c(Cl)c32)c(F)cc1F [DELAFLOXACIN] | 0.06 µg/mL (≈ 0.136 µM) | 5.47 | 19% | – | 0.25 µg/mL (≈ 0.567 µM) | > 50 µM | 0.03 µg/mL (≈ 0.0681 µM) | 58.1 µM (≈ 25.6 µg/mL) | 3 µL/min/1e6 cells | 1 µg/mL (≈ 2.27 µM) | 8 µg/mL (≈ 18.2 µM) | > 50 µM | < 5 µL/min/mg | 0.7 | 0.03 µg/mL (≈ 0.0681 µM) | 0.149 | 0.003 µg/mL (≈ 0.00681 µM) | 0.01 µg/mL (≈ 0.0227 µM) | > 50 µM | > 50 µM | MIC [22]: ≥ 0.008 µg/mL; MIC90 [22]: 0.125 µg/mL (≈ 0.284 µM); inhibition (INH) [23]: Not Active; bioavailability [24]: 59%
4 | Nc1nc(-n2cc(C(=O)O)c(=O)c3cc(F)c([C@H]4C[C@H](O)C4)c(Cl)c32)c(F)cc1F | 0.01 µg/mL (≈ 0.0227 µM) | 5.04 | 18% | > 50 µM | 8 µg/mL (≈ 18.2 µM) | > 50 µM | 0.12 µg/mL (≈ 0.273 µM) | 59.3 µM (≈ 26.1 µg/mL) | 6.8 µL/min/1e6 cells | 2 µg/mL (≈ 4.55 µM) | 64 µg/mL (≈ 146 µM) | > 50 µM | < 5 µL/min/mg | 0.3 | 0.5 µg/mL (≈ 1.14 µM) | 0.105 | 0.03 µg/mL (≈ 0.0682 µM) | 0.12 µg/mL (≈ 0.273 µM) | > 50 µM | 41.7 µM | –
5 | COc1c(N2C[C@@H]3CCCN[C@@H]3C2)c(F)cc2c(=O)c(C(=O)O)cn(C3CC3)c12 [MOXIFLOXACIN] | – | – | – | – | – | – | – | – | – | – | – | – | – | – | – | – | – | – | – | – | bioavailability [25]: 92%
